Reference: patent EP4624457A1, “I[…] DERIVATIVES, I[…] NEURODEGENERATIVE DISEASES” (Centre National de la Recherche Scientifique, priority 2024, dated 2025)

Assays:
[1] = test system: HCT116 cells; experiment: JC-1 mitochondrial membrane potential assay (flow cytometry); format: cell-based, human
Protocol: • Figure 1 represents the chemical structure of ingrilimine according to compound (Illa) formula. • Figure 2 represents the cytotoxic activity of ingrilimine. A2780 ovarian and HT29 colorectal carcinoma cells were grown in RPMI 1640 supplemented with 10% fetal calf serum (FCS) and 1% glutamine. U87-MG glioblastoma cells were grown in Dulbecco minimal essential medium containing 4.5 g/L glucose, 10% FCS and 1% glutamine at 37 °C in a humidified atmosphere containing 5% CO2. For IC50 determination, the cells were seeded in 96-well plates (3 × 10^3 cells/well) containing 90 µL of growth medium. After 24 h of culture, the cells were treated with ingrilimine at 10 different final concentrations. Cell viability was determined by luminescence after 72 h incubation. (a) Effect of ingrilimine on A2780 ovarian carcinoma cells. (b) Effect of ingrilimine on U87-MG glioblastoma cells. (c) Effect of ingrilimine on U87-MG glioblastoma cells • Figure 3a-3f represent the mitochondrial dysfunction provoked by ingrilimine. HCT116 cells were treated with ingrilimine in the range of […] for 24h and 48h. Sector Q normal cells that accumulated the JC-1 dye (fluorescence emission 590 nm). […] (a) Non-treated cells incubated with the carrier (DMSO) for 24 h. (b) HCT116 cells incubated with 10 nN ingrilimine for 24 h. (c) HCT116 cells incubated with 250 nM ingrilimine for 24 h. (d) Non-treated cells incubated with the carrier (DMSO) for 48 h. (e) HCT116 cells incubated with 10 nN ingrilimine for 48 h. (f) HCT116 cells incubated with 250 nM ingrilimine for 48. Changes in fluorescence emission were recorded by flow cytometry using the JC-1 mithocondrial membrane potential-dependent fluorescent dye. NT = non-treated cells; IngX = ingrilimine. • Figure 4a-4f represents phosphatidylserine exposure provoked by ingrilimine. […] Quadrants D1 and D2 with dead or necrotic cells, quadrant D3 with normal cells and quadrant D4 with apoptotic cells following phosphatidylserine exposure. (a) Non-treated A2780 cells incubated with the carrier (DMSO) for 24h. (b) A2780 cells incubated with 10 nM ingrilimine for 24 h. (c) A2780 cells incubated with 250 nM ingrilimine for 24 h. (d) Non-treated A2780 cells incubated with the carrier (DMSO) for 48 h. (e) A2780 cells incubated with 10 nM ingrilimine for 48 h. (f) A2780 cells incubated with 250 nM ingrilimine for 48. […] exposure in A2780 cell was quantified by flow cytometry using FITC-Annexin V. Dead or necrotic cells were detected using the vital dye propridium iodide. NT = non-treated cells; IngX = ingrilimine. • Figure 5 represents the antagonistic activity of ingrilimine (named "IngX" in the figure) and portimine (named "Port A" in the figure) against nicotinic acetylcholine receptors recorded by two-electrodes voltage clamp electrophysiology on Xenopus laevis oocytes. Clamped Xenopus laevis oocytes having incorporated the muscle (α1)2βγδ nAChR subtype from Torpedo marmorata (filled squares), or expressing the neuronal α3β2 nAChR subtype from rat (filled triangles), or expressing the human neuronal α7 nAChR subtype (filled circles) were exposed to portimine (100 nM - 1 mM) for 45 seconds. […] A Xenopus laevis oocyte expressing the human α7 nAChR subtype was exposed to 100 µM acetylcholine triggering the immediate opening of the receptor's channel (black bold line) followed by the very-fast closure of the channel ([…]) that became insensitive to acetylcholine during the rest of the 5 seconds exposure (desensitization). When a Xenopus laevis oocyte expressing the human α7 nAChR subtype was exposed first to 10 nM ingrilimine for 45 seconds and then to a mixture (Mix) containing 10 nM ingrilimine and 100 µM acetylcholine, the receptor's channel was closed denoting a strong antagonistic activity of the tested toxin against the α7 nAChR subtype (dotted line). […]

[2] = test system: Jurkat cells; settings: 50 nM for 6 h; cited from earlier work

Row | SMILES | JC-1 % ([1]; 10 nM, 24 h) | JC-1 % ([1]; 10 nM, 48 h) | JC-1 % ([1]; 50 nM, 24 h) | JC-1 % ([1]; 50 nM, 48 h) | JC-1 % ([1]; 100 nM, 24 h) | JC-1 % ([1]; 100 nM, 48 h) | JC-1 % ([1]; 250 nM, 24 h) | JC-1 % ([1]; 250 nM, 48 h) | JC-1 % ([1]; 500 nM, 24 h) | times less potent than portimine in inducing mitochondrial membrane depolarization ([1]; HCT116, JC-1) | annexin V-positive cells [2] | viable cells [2] | JC-1 % ([1]; 5 nM, 48 h) | JC-1 % ([1]; 20 nM, 24 h) | JC-1 % ([1]; 20 nM, 48 h, listed as Portimine) | JC-1 % ([1]; 20 nM, 48 h, listed as portimine)
1 | C=CC1=C[C@@H]2C[C@@H](O)[C@@H](O)/C(C)=C/C/C(C)=C/CCC3=NCCC[C@]32CC1 [Ingrilimine, ingrilimine] | 5.1% | 4.4% | 6.1% | 22.6% | 14.9% | 44.1% | 22.7% | 64.1% | 36.9% | 10 times |  |  |  |  |  | 
2 | C=CC1=C[C@@H]2[C@@H]3O[C@]4(CC[C@H](O4)[C@@H](C)C[C@@H](O)C3=O)C[C@H](O)C3=NCC[C@@]32CC1 [Portimine-A] | 19.7% | 44.6% | 37.0% |  |  |  |  |  |  |  | 50% | 50% | 31.6% | 23.9% | 62.1% | 62.3%
